Test results taken from PMC11855827, “High-Throughput Screening of Five Compound Libraries for Anthelmintic Activity and Toxicity Leads to the Discovery of Two Flavonoid Compounds” (International Journal of Molecular Sciences, 2025).
Read-outs that look alike come from different tables or passages of the source. Each block holds one compound with its values, some of them ahead of it.

How the values were obtained:
C. elegans [1] = system: C. elegans
C. elegans [2] = assay: microbe, parasite or virus in culture; details: Caenorhabditis elegans
[3] = system: H. contortus susceptible strain; assay: Egg hatch inhibition (EHI), ovicidal effect; set-up: species or system Haemonchus contortus; details: susceptible strain, 100 μM, NE = Not Effective at 100 μM, control thiabendazole 0.1 µg/mL; for inhibition at 100 µM: Haemonchus contortus
[4] = system: H. contortus susceptible strain; assay: Larval migration inhibition test (LMIT); set-up: species or system Haemonchus contortus; details: L3, 100 μM, NE = Not Effective at 100 μM, control ivermectin 8.75 µg/mL; for inhibition at 100 µM: Haemonchus contortus, 24 h
From the text: Eggs and third instar larvae (L3) of H. contortus from a field strain and a resistant strain of T. circumcincta were used in the current trials. These parasitic forms were obtained from fresh feces of Merino and Churra sheep experimentally infected at the experimental farm of the Instituto de Ganadería de Montaña (IGM, CSIC, Gruyeros, León, Spain) and purified according to previously described methods. Briefly, eggs were taken from fresh feces, washed, centrifuged and floated with a saturated sodium chloride solution, then concentrated, counted and used in the assays. L3 were obtained by culturing feces at 25 °C for 13 d. L3 larvae were […] in 0.5% sodium hypochlorite solution for 10 min at room temperature and washed to avoid excess salt. After washing, they were concentrated and counted for use.
The viability of H. contortus larvae was assessed by the larval migration inhibition test (LMIT) according to previously described methods. Briefly, 700 µL aliquots containing 500–600 L3 were prepared for each compound. […] After a 24 h incubation at 28 °C, the compound was removed by three washes, leaving a final volume of 1400 µL. After the washes, three 400 µL aliquots were taken from each tube and transferred to a 96-well plate with a MultiScreen mesh filter. The plates were incubated for a further 24 h at 28 °C to allow the motile L3 to pass through the 20 µm mesh for counting. Then, the number of larvae present in each well was counted to determine percentage of larval migration for each compound: % Larval migration=number of larvae migrating in compound wells/number of larvae migrating in negative control×100
For the larvae, ivermectin at 8.75 µg/mL and DMSO 0.5% (v/v) were used as controls and at least 12 replicates were performed. […] EC50 were determined by plotting the percentage of viability of the L1 against the concentration of each compound, using the nonlinear fit analysis provided by the SigmaPlot® 10.1.

C. elegans [5] = assay: C. elegans motility dose-response (DR) assay; set-up: species or system Caenorhabditis elegans
[6] = Table S2, C. elegans SS assay, 110 μM, 24 h, averages of 4 data points
[7] = 24 h, read-out: Percentage of motility inhibition 24 h, Table S2, C. elegans SS assay, 110 μM, 24 h, averages of 4 data points
[8] = 0 h, read-out: Percentage of motility inhibition 0 h, Table S2, C. elegans SS assay, 110 μM, 0 h, averages of 4 data points
[9] = 0 h, read-out: Inhibition (%) 110 μM (0 h), C. elegans L4 motility, 110 μM, 0 h, mean ± SD of four experiments
[10] = 24 h, read-out: Inhibition (%) 110 μM (24 h), C. elegans L4 motility, 110 μM, 24 h, mean ± SD of four experiments
[11] = Caenorhabditis elegans, 24 h, read-out: EC50 (μM) at 24 h, C. elegans motility, DR assay, 24 h
[12] = Table S2, C. elegans SS assay, 110 μM, 0 h, averages of 4 data points

Structure (SMILES): CC1(C)[C@@H](O)CC[C@]2(C)[C@H]3C(=O)C=C4[C@H]5C[C@@](C)(C(=O)O)CC[C@]5(C)CC[C@@]4(C)[C@]3(C)CC[C@@H]12 [18α-Glycyrrhetinic acid]
Percentage of motility inhibition 24 h (C. elegans [1]; [6]): 10%
inhibition at 110 µM (C. elegans [2]; [7]): 18%

Structure (SMILES): C=C1CC[C@@H]2[C@](C)(CO)[C@H](O)CC[C@@]2(C)[C@@H]1C/C=C1/C(=O)OC[C@H]1O [Andrographolide]
Percentage of motility inhibition 24 h (C. elegans [1]; [6]): 19%
inhibition at 110 µM (C. elegans [2]; [7]): 17%

Structure (SMILES): O=c1cc(-c2ccccc2)oc2cc(O)c(O)c(O)c12 [Baicalein]
Percentage of motility inhibition 0 h (C. elegans [1]; 0 h, 110 μM): 14%
Percentage of motility inhibition 24 h (C. elegans [1]; 24 h, 110 µM): 19%
inhibition at 110 µM (C. elegans [2]; [8]): 10%
inhibition at 110 µM (C. elegans [2]; [7]): 12%

Structure (SMILES): Cc1ccc(C(C)C)cc2c(C)ccc1-2 [Guaiazulene]
Percentage of motility inhibition 24 h (C. elegans [1]; 24 h, 110 µM): 12%
inhibition at 110 µM (C. elegans [2]; [7]): 24%

EC50 (C. elegans [5]; read-out: EC50 (μM) at 24 h, C. elegans motility, DR assay): 34.7 ± 1.6 µM
Structure (SMILES): CC(C)=CCc1c(-c2ccc(O)cc2O)oc2c([C@H]3C=C(C)C[C@@H](c4ccc(O)cc4O)[C@@H]3C(=O)c3ccc(O)cc3O)c(O)cc(O)c2c1=O [Kuwanon G]
H. contortus EHI (%) [3]: 9.4 ± 1.8%
H. contortus LMIT (%) [4]: 0.0%
Inhibition (%) 110 μM (0 h) (C. elegans [1]; C. elegans L4 motility, 110 μM, 0 h, mean ± SD of four experiments): 0 ± 0%
Inhibition (%) 110 μM (24 h) (C. elegans [1]; C. elegans L4 motility, 110 μM, 24 h, mean ± SD of four experiments): 74 ± 5%
Percentage of motility inhibition 24 h (C. elegans [1]; [6]): 75%

EC50 (C. elegans [5]; [11]): 32.3 ± 2.8 µM
Structure (SMILES): N=C(N/N=C/c1ccc(Cl)cc1)N/N=C/c1ccc(Cl)cc1 [Robenidine, reference compound]
inhibition at 100 µM [3]: 59.7 ± 0.7%
inhibition at 100 µM [4]: 3.1 ± 6.9%
inhibition at 110 µM (C. elegans [2]; [9]): 93 ± 5%
inhibition at 110 µM (C. elegans [2]; [10]): 81 ± 20%
inhibition at 110 µM (C. elegans [2]; [7]): 80%

Structure (SMILES): COc1ccc2c(c1O)-c1c(OC)c(OC)cc3c1[C@H](C2)N(C)CC3 [Isocorydine]
Percentage of motility inhibition 24 h (C. elegans [1]; [6]): 7%
inhibition at 110 µM (C. elegans [2]; [8]): 0%

EC50 (C. elegans [5]; [11]): > 60 µM
Structure (SMILES): CCc1c(Cl)c(O)c(Cl)c(O)c1C(=O)O[C@H]1[C@H](O)[C@H](OC)[C@H](OC/C2=C\C=C\C[C@H](O)/C(C)=C/[C@H](CC)[C@@H](O[C@@H]3OC(C)(C)[C@@H](OC(=O)C(C)C)[C@H](O)[C@@H]3O)/C(C)=C/C(C)=C/C[C@@H]([C@@H](C)O)OC2=O)O[C@@H]1C [Fidaxomicin, reference compound]
inhibition at 110 µM (C. elegans [2]; [9]): 82 ± 7%
inhibition at 110 µM (C. elegans [2]; [10]): 89 ± 1%
inhibition at 110 µM (C. elegans [2]; [7]): 88%

Structure (SMILES): COC(=O)[C@]1(C)CC[C@]2(C)CC[C@]3(C)C4=CC=C5C(=CC(=O)C(O)=C5C)[C@]4(C)CC[C@@]3(C)[C@@H]2C1 [Pristimerin]
Percentage of motility inhibition 0 h (C. elegans [1]; [12]): 15%
Percentage of motility inhibition 24 h (C. elegans [1]; [6]): 24%
inhibition at 110 µM (C. elegans [2]; [8]): 29%
inhibition at 110 µM (C. elegans [2]; [7]): 23%

Structure (SMILES): CC(C)[C@]12O[C@H]1[C@@H]1O[C@]13[C@]1(O[C@H]1C[C@H]1C4=C(CC[C@@]13C)C(=O)OC4)[C@@H]2O [Triptolide]
inhibition at 110 µM (C. elegans [2]; 0 h, read-out: Inhibition (%) 110 μM (0 h)): 15%
inhibition at 110 µM (C. elegans [2]; 24 h, read-out: Inhibition (%) 110 μM (24 h)): 72 ± 1%
inhibition at 110 µM (C. elegans [2]; [7]): 71%
EC50 (C. elegans [5]; Caenorhabditis elegans, read-out: EC50 (μM) at 24 h, C. elegans motility, DR assay): > 60 µM

Structure (SMILES): O=c1c(-c2ccc(O)cc2)coc2cc(O)ccc12 [Daidzein]
Percentage of motility inhibition 24 h (C. elegans [1]; [6]): 10%
inhibition at 110 µM (C. elegans [2]; [7]): 14%

Structure (SMILES): O=C(O)[C@H]1O[C@@H](Oc2cc3oc(-c4ccccc4)cc(=O)c3c(O)c2O)[C@H](O)[C@@H](O)[C@@H]1O [Baicalin]
Percentage of motility inhibition 24 h (C. elegans [1]; 24 h, 110 µM): 24%
inhibition at 110 µM (C. elegans [2]; [7]): 15%

Structure (SMILES): CNCC(O)c1ccc(O)cc1 (stereo not shown) [Synephrine]
Percentage of motility inhibition 24 h (C. elegans [1]; [6]): 24%
inhibition at 110 µM (C. elegans [2]; [8]): 16%

EC50 (C. elegans [5]; [11]): 27.7 ± 1.5 µM
Structure (SMILES): Oc1ccc(/C=C/c2cc(O)cc(O)c2)cc1 [Resveratrol]
inhibition at 100 µM [3]: 0%
inhibition at 100 µM [4]: 0%
inhibition at 110 µM (C. elegans [2]; [9]): 82 ± 8%
inhibition at 110 µM (C. elegans [2]; [10]): 7 ± 7%

Structure (SMILES): Nc1ncnc2c1ncn2[C@@H]1O[C@H](CO)[C@@H](O)[C@@H]1O [Vidarabine]
Percentage of motility inhibition 0 h (C. elegans [1]; [12]): 4%
inhibition at 110 µM (C. elegans [2]; [7]): 0%
